Assay results: patent US11452718B2 (AVALYN PHARMA INC., priority 2012, dated 2022)
Entries after “also recorded” stand apart in the source; their conditions may differ. Where two headings read alike, the source gives them in different places.

Columns and labels:
[1] = Buffer and pH effects: pirfenidone solubility in citrate and phosphate buffers; assay type: physicochemical; conditions: Citrate buffer 5 mM, pH 6; ambient temperature overnight
Experimental: The sample was agitated at ambient temperature overnight. The sample was visually inspected, appearance recorded, centrifuged to sediment any un-dissolved material, and the supernatant withdrawn via syringe through a 0.22 μm PVDF filter. […] The remaining filtered sample was split into three equal volumes in glass vials and placed at 25° C./60RH, 40° C./75RH and refrigeration. Samples were wrapped in aluminum foil to reduce light exposure. After the first night of incubation, samples were briefly visually inspected for any signs of discoloration or precipitate formation.

[2] = Process temperature development study (60° C. dissolution, cooling to 25° C.); assay type: physicochemical; conditions: for Pirfenidone (mg/mL) >Re-crystal: after stepwise cooling to 25° C. and later re-crystallization
Experimental: Formulations were prepared as described in Table 11. […] The final volume of each formulation was 5 mL. […] Each sample was mixed thoroughly and agitated overnight at 60° C. Rapid cooling and step-wise cooling from 60° C. to 25° C. was performed. HPLC analysis was performed on samples taken after overnight incubation and after cooling to 25° C. Prior to HPLC analysis, formulations were filtered via syringe through a 0.45 μm PVDF filter.

[3] = Extended-duration intratracheal and oral pharmacokinetic study; assay type: in vivo, Wistar rats
Experimental: Previous intratracheal aerosol delivery (see Example 6) was performed as a single bolus instillation just above the first bifurcation of the lung. For in vivo efficacy studies, an attempt was made to mimic tidal inhaled breathing by splitting the dose into equal parts and administering as before, but over a 2 minute period. […] Doses were prepared in 0.45% sodium chloride solution and were administered as described in Table 21.
Plasma samples and entire lungs were taken at pre-dose, 2, 4, 6, 10, 30, 60 and 120 minutes post dosing. Materials were extracted and pirfenidone quantitated as mcg/mL plasma and μg/gram lung tissue.

[4] = Rubino et al., cited from earlier work
[5] = system: proliferation of fibroblasts; LPS-stimulated release of PDGF, TNF-alpha and TGF-beta1; collagen synthesis; conditions: depending on the assay conditions; cited from earlier work
[6] = cited from earlier work
CYP1A2 = target: T1, CYP1A2 (Homo sapiens, UniProt P05177); conditions: hepatic microsomes; cited from earlier work
T1 construct: In vitro metabolism studies with hepatic microsomes; from tissue; host or cells: hepatic microsomes

[7] = system: CYP2C9, 2C19, 2D6, and 2E1; conditions: hepatic microsomes; cited from earlier work
[8] = EtOH 0, PG 8, PS80 0 % v/v, 92% phosphate buffer (5 mM), pH 6.6
[9] = EtOH 0, PG 8, PS80 0.04 % v/v, 92% phosphate buffer (5 mM), pH 6.7
[10] = EtOH 4, PG 0, PS80 0.04 % v/v, 96% phosphate buffer (5 mM), pH 6.6
[11] = EtOH 4, PG 8, PS80 0 % v/v, 88% phosphate buffer (5 mM), pH 6.7
[12] = EtOH 4, PG 8, PS80 0.04 % v/v, 88% phosphate buffer (5 mM), pH 6.7
[13] = intratracheal aerosol 2.5 mg/kg, extended-duration (2 minutes)
[14] = intratracheal aerosol 5 mg/kg, extended-duration (2 minutes)
[15] = intratracheal aerosol 10 mg/kg, extended-duration (2 minutes)

T1 sequence (P05177 whole entry): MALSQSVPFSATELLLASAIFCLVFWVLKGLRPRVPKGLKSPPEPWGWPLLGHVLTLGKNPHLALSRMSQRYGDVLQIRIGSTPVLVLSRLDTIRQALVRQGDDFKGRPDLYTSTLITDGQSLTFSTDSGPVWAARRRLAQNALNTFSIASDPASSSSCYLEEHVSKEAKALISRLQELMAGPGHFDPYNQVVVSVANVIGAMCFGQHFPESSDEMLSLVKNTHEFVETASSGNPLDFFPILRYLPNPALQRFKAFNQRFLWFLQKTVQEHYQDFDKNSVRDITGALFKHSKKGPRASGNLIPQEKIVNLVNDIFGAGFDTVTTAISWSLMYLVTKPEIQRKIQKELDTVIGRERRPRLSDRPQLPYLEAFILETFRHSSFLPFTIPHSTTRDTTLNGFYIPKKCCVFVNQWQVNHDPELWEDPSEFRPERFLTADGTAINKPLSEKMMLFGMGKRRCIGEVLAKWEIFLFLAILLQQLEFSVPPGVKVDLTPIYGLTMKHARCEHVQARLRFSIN

## Cc1ccc(=O)n(-c2ccccc2)c1 [pirfenidone, 5-methyl-1-phenyl-2-(1H)-pyridone]
[1]
  Pirfenidone Saturation Solubility: 18.4 mg/mL
[2]; 60° C.
  full dissolution on heating: ≥ 50 mg/mL
[2]; [8]
  Observations: dissolution: Fully dissolved after overnight at 60 °C
  Observations: stable at 25° C. before re-crystallization: Stable at 25 °C for >4 hours before re-
  Pirfenidone (mg/mL) >60° C.: 54.6 mg/mL
  Pirfenidone (mg/mL) >Re-crystal: 18.6 mg/mL
[2]; [9]
  Observations: dissolution: Fully dissolved after overnight at 60 °C
  Observations: stable at 25° C. before re-crystallization: Stable at 25 °C for >4 hours before re-
  Pirfenidone (mg/mL) >60° C.: 52.8 mg/mL
  Pirfenidone (mg/mL) >Re-crystal: 22.3 mg/mL
[2]; [10]
  Observations: dissolution: Fully dissolved after overnight at 60 °C
  Observations: stable at 25° C. before re-crystallization: Stable at 25 °C for >4 hours before re-
  Pirfenidone (mg/mL) >60° C.: 50.7 mg/mL
  Pirfenidone (mg/mL) >Re-crystal: 22.4 mg/mL
[2]; [11]
  Observations: dissolution: Fully dissolved after overnight at 60 °C
  Observations: stable at 25° C. before re-crystallization: Stable at 25 °C for >4 hours before re-
  Pirfenidone (mg/mL) >60° C.: 50.34 mg/mL
  Pirfenidone (mg/mL) >Re-crystal: 27.6 mg/mL
[2]; [12]
  Observations: dissolution: Fully dissolved after overnight at 60 °C
  Observations: stable at 25° C. before re-crystallization: Stable at 25 °C for >4 hours before re-
  Pirfenidone (mg/mL) >60° C.: 51.8 mg/mL
  Pirfenidone (mg/mL) >Re-crystal: 26.8 mg/mL
[2]; rapid cooling to 25° C.
  outcome of rapid cooling: rapid recrystallization
[2]; slow step-wise cooling from 60° C. to 25° C.
  concentration staying in solution for several hours: about 50 mg/mL
[3]; extended-duration intratracheal aerosol or oral gavage
  adverse events: No adverse events were noted
[3]; [13]
  Lung Tissue AUC(0-2 hr): 3.5 µg·h/g
  Lung Tissue Cmax: 14.4 μg/gram
[3]; [14]
  Lung Tissue AUC(0-2 hr): 6.6 µg·h/g
  Lung Tissue Cmax: 27.9 μg/gram
[3]; [15]
  Lung Tissue AUC(0-2 hr): 14.5 µg·h/g
  Lung Tissue Cmax: 61.1 μg/gram
[3]; oral gavage 10 mg/kg
  Lung Tissue AUC(0-2 hr): 4.9 µg·h/g
  Lung Tissue Cmax: 3.5 μg/gram
[3]; oral gavage 30 mg/kg
  Lung Tissue AUC(0-2 hr): 13.5 µg·h/g
  Lung Tissue Cmax: 9.8 μg/gram
[3]; oral gavage 100 mg/kg
  Lung Tissue AUC(0-2 hr): 27.9 µg·h/g
  Lung Tissue Cmax: 33.6 μg/gram
[4]; lung tissue (derived solely from plasma T1/2), aerosol 110 mg RDD, 2009 fasted-state
  T1/2 beta: 2.5 h
[4]; lung tissue (derived solely from plasma T1/2), aerosol 154 mg RDD, 2009 fasted-state
  T1/2 beta: 2.5 h
[4]; lung tissue (derived solely from plasma T1/2), aerosol 185 mg RDD, 2009 fasted-state
  T1/2 beta: 2.5 h
[4]; lung tissue (derived solely from plasma T1/2), oral 801 mg, fasted-state, 2009
  T1/2 beta: 2.5 h
[4]; lung tissue (derived solely from plasma T1/2), oral 801 mg, fed-state, 2009
  T1/2 beta: 2.4 h
[4]; plasma, aerosol 110 mg RDD, 2009 fasted-state
  T1/2 beta: 2.5 h
[4]; plasma, aerosol 154 mg RDD, 2009 fasted-state
  T1/2 beta: 2.5 h
[4]; plasma, aerosol 185 mg RDD, 2009 fasted-state
  T1/2 beta: 2.5 h
[4]; plasma, oral 801 mg, fasted-state, 2009
  T1/2 beta: 2.5 h
[4]; plasma, oral 801 mg, fed-state, 2009
  T1/2 beta: 2.4 h
[5]
  lower end of concentrations at which in vitro activities were evident: about 30 microM; also recorded: about 5.5 mcg/mL
  upper end of concentrations at which in vitro activities were evident: about 10 mM; also recorded: about 1.85 mg/mL
[6]; 40 mg/kg intravenous dose
  Lung Cmax: 30 mcg/gram wet tissue
  plasma Cmax: about 55 mcg/mL
[6]; intravenous
  wet lung half-life, longer than the plasma half-life: about 45%
CYP1A2
  share of pirfenidone metabolised via the enzyme: approximately 48%
[7]
  contribution of each isoenzyme to metabolism: less than 13%
